Active and inactive are the calls of the source.
Experiments:
[1] = biological target: T1, Sentrin-specific protease 7 (Homo sapiens, UniProt Q9BQF6); assay type: functional;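 note: Luminescence-based dose-response confirmation of ultra-high-throughput screening hits, measuring inhibition of SENP7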
T1 sequence (Q9BQF6 whole entry): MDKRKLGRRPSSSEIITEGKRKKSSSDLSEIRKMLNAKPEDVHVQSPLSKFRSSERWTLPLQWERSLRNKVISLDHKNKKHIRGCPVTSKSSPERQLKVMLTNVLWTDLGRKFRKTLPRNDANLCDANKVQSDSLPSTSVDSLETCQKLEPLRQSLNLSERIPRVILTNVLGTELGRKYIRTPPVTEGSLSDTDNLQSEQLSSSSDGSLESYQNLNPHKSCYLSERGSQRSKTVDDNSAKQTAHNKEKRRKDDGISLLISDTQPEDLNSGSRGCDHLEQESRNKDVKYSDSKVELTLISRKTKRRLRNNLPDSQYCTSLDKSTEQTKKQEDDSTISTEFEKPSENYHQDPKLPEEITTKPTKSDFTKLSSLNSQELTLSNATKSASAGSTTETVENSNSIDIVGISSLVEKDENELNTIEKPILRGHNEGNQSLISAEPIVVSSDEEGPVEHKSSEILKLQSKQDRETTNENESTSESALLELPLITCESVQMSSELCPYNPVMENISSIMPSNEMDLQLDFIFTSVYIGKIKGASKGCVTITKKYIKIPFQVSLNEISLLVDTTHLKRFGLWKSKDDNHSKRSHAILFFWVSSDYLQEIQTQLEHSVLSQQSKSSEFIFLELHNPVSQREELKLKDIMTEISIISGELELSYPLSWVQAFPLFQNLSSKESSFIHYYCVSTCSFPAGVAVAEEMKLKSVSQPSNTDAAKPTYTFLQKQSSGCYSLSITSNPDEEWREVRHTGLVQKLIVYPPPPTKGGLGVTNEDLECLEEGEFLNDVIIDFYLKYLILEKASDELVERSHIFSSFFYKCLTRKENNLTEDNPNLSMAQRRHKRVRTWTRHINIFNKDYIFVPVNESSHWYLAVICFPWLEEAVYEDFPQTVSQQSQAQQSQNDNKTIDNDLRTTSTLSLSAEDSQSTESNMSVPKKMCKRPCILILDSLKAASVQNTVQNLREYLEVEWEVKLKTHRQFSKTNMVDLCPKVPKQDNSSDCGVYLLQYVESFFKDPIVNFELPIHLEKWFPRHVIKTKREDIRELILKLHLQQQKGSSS

[2] = biological target: T2, Sentrin-specific protease 6 (Homo sapiens, UniProt Q9GZR1); assay type: functional;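 note: Luminescence-based dose-response confirmatory assay of SENP6 inhibition, following up an ultra-high-throughput screen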
T2 sequence (Q9GZR1 whole entry): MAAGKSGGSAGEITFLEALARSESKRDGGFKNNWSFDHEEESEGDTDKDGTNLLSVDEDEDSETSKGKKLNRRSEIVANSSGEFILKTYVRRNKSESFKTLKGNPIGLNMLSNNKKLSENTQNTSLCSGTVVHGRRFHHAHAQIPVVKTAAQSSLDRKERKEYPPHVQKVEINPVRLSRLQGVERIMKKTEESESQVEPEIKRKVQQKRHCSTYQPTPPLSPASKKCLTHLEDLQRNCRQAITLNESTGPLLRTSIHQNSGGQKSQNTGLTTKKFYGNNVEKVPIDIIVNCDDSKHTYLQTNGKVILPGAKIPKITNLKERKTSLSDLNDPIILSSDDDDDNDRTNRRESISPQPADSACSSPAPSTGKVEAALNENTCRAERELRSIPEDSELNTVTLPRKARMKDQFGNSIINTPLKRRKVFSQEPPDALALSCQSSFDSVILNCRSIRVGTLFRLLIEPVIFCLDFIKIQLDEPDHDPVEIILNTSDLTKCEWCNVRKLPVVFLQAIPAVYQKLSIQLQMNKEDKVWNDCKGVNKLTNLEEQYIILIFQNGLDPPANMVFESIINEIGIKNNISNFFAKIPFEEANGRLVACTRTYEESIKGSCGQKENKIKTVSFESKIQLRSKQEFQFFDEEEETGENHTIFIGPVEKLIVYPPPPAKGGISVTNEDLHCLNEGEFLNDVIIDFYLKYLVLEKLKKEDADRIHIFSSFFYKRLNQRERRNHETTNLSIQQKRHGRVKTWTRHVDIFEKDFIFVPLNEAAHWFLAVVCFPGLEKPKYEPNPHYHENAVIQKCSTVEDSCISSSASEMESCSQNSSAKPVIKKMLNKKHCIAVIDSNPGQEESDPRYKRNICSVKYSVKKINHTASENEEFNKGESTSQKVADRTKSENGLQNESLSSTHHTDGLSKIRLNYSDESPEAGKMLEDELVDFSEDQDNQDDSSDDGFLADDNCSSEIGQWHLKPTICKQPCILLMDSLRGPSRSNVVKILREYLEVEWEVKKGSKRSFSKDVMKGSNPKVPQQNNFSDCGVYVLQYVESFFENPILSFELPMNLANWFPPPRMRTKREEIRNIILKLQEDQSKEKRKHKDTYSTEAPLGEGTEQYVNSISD

Caspase-3 = biological target: T3, Caspase-3 (Homo sapiens, UniProt P42574); assay type: functional;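 note: Dose-response selectivity test against caspase-3 for candidate inhibitors of sentrin-specific proteases (SENPs)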
T3 sequence (P42574 whole entry): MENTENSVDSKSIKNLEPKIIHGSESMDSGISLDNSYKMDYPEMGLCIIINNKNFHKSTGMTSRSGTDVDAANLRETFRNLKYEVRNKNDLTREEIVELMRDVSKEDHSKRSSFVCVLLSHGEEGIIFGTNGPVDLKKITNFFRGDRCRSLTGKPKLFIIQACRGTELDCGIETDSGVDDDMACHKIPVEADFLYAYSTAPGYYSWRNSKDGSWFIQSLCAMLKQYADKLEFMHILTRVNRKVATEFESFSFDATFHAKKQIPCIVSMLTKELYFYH

[3] = biological target: T4, Sentrin-specific protease 8 (Homo sapiens, UniProt Q96LD8); assay type: functional;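 note: luminescence read-out of SENP8 inhibition, dose-response confirmation following an ultra-high-throughput screen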
T4 sequence (Q96LD8 whole entry): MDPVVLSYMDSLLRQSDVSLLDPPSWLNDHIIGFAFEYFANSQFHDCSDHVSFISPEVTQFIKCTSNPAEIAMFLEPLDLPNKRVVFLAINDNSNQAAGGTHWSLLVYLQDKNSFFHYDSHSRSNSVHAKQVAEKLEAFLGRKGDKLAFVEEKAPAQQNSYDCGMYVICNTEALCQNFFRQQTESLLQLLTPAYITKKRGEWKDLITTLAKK

[4] = LGR2 antagonists, dose response, cell-based, HEK293, CRE-luciferase reporter, cherry pick, set 2 (AID 743343); assay type: functional;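 note: transfected cells were stimulated with diluted bursicon conditioned medium after compound addition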
[5] = A549 cell cytotoxicity, dose response, cytotoxicity control, plate reader, cherry-pick, antagonist series (AID 743412); assay type: functional, cell-based
[6] = MC4R antagonists, dose response, counter-screen for LGR2 antagonist project, cell-based, plate reader, cherry pick (AID 743444); assay type: functional;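 note: transfected HEK 293 cells stimulated with alpha-MSH peptide; potency of inhibitors of the alpha-MSH evoked signal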
[7] = ZM109 Env clade C HIV-1 fusion inhibitors, dose response, HeLa effector, CEM target cells, luciferase, cherry-pick (AID 652058); assay type: functional, cell-based
[8] = P. falciparum Dd2 growth inhibitors, dose response, SYBR Green, cherry-picked samples (AID 1159567); assay type: functional, cell-based
[9] = inhibitors of clade B AD8 Env fusion, dose response, cell-based, cherry-pick (AID 652062); assay type: functional;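 note: luciferase signal from cell-cell fusion driven by HIV-1 clade B AD8 Env; potency is for inhibitors of fusion seen as a drop in luminescence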
[10] = P. falciparum ATP4 D1247Y mutant growth inhibitors, dose response, NITD609-resistant line, SYBR Green, dry powder (AID 1159571); assay type: functional, cell-based;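 note: parasites synchronized at ring stage by sorbitol before testing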
[11] = P. falciparum Dd2 growth inhibitors, dose response, SYBR Green, dry powder samples (AID 1159566); assay type: functional, cell-based;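 note: potency for growth inhibition with lower SYBR green DNA signal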
[12] = inhibitors of HIV Env-driven cell fusion, dose response, cherry-pick (AID 652057); assay type: functional, cell-based
[13] = P. falciparum 3D7-ScDHODH growth inhibitors, dose response, SYBR Green, dry powder samples (AID 1159570); assay type: functional, cell-based;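 note: parasite growth measured after 72 hours of compound exposure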
[14] = A Cell Based Secondary Assay To Explore Cytotoxicity of Compounds that Sensitize Mycobacterium Tuberculosis to Beta-Lactam Antibiotics.; assay type: functional
[15] = biological target: T5, Carboxy-terminal domain RNA polymerase II polypeptide A small phosphatase 1 (Homo sapiens, UniProt Q9GZU7); experiment: inhibitors of CTDSP1, concentration-response testing, biochemical assay, absorbance-based, actives from ultra-high-throughput screening (AID 540297); assay type: functional
T5 sequence (Q9GZU7 whole entry): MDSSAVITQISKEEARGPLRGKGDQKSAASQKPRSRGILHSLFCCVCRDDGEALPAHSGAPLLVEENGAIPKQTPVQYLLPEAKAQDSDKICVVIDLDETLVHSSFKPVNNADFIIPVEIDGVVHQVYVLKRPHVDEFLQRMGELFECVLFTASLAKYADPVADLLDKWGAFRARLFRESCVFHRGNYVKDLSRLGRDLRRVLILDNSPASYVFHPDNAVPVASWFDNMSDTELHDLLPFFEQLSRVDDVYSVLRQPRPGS

[16] = biological target: Eukaryotic translation initiation factor 4E (Mus musculus, UniProt P63073); experiment: eIF4E–eIF4G protein interaction inhibitors, dose response, biochemical, TR-FRET (AID 855); assay type: functional;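 note: potency for disrupting eIF4E binding to eIF4GI seen as loss of FRET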
Chain of Eukaryotic translation initiation factor 4E (P63073 whole entry): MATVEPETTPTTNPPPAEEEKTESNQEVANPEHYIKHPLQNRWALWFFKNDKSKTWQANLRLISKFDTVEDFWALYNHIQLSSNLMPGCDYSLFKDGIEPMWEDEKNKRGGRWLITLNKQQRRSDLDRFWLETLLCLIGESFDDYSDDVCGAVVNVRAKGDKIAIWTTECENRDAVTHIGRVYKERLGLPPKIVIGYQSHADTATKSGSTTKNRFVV

[17] = cytotoxicity in HEK-293T cells, dose response, cytotoxicity control for TCR NF-kB inhibitor project, luminescence, T-cell screen hits (AID 489026); assay type: functional, cell-based;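 note: cells exposed to compound about 14 hours before the viability readout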

Cc1ccc(C(=O)c2cc3ccccc3o2)cc1C
IC50 [1]: 3.18 µM (active)
IC50 [2]: 6.41 µM (active)
IC50 (Caspase-3): 11.2 µM (active)
IC50 [3]: 10.6 µM (active)

Cc1ccc(S(=O)(=O)N2CCCCC2)cc1NC(=O)c1ccc2c(=O)n3c(nc2c1)CCCCC3
AC50 [4]: 12.8 µM (active)
AC50 [5]: 26.8 µM (active)
AC50 [6]: 12.4 µM (active)

O=C(O)C(Oc1ccc2cc(-c3ccc(Cl)cc3)c(=O)oc2c1)c1ccccc1 (configuration not stated)
IC50 [1]: 28.7 µM (active)
IC50 [2]: 31.3 µM (active)
IC50 (Caspase-3): 38.3 µM (active)
IC50 [3]: 31.8 µM (active)

COc1ccc(S(=O)(=O)Nc2ccc3c(c2)CC(=O)N([C@H](C)CO)C[C@H](C)[C@H](CN(C)S(=O)(=O)c2ccc(C)cc2)O3)cc1
AC50 [7]: 0.33 µM (active)
AC50 [8]: 1.89 µM (active)
AC50 [9]: 1.01 µM (active)
AC50 [10]: 1.6 µM (active)
AC50 [11]: 1.88 µM (active)
AC50 [12]: < 0.26 µM (active)
AC50 [13]: 1.89 µM (active)

O=C(Nc1ccc2ncccc2c1)c1cccc(Br)c1
IC50 [1]: 8.67 µM (active)
IC50 [2]: 29.1 µM (active)
IC50 (Caspase-3): 32.1 µM (active)
IC50 [3]: 28.7 µM (active)

CCNC(=O)CCn1nc(-c2ccc(Cl)cc2)c2ccccc2c1=O
CC50 [14]: > 40 µM (active)

O=C(Cc1cccs1)Nc1ccc(S(=O)(=O)N2CCCC2)cc1
IC50 [15]: 5.04 µM (active)
IC50 [16]: 50 µM (inactive)

CCCC[C@@H](C)C[C@@H](C)C(=O)N(C)[C@@H](CC(C)C)C(=O)N[C@H](C(=O)N(C)[C@H](C(=O)N1C[C@@H](O)C[C@H]1C(=O)N1C(=O)C=C[C@@H]1C)C(C)C)C(C)OC(C)=O (some centres not stated)
IC50 [17]: 18.6 µM (active)

C[C@@H]1CN([C@@H](C)CO)C(=O)c2cccc(NC(=O)c3ccc(-c4nccs4)cc3)c2O[C@H]1CN(C)CC1CC1
AC50 [7]: 40.2 µM (active)

Source: ChEMBL document CHEMBL1201862, “PubChem BioAssay data set” (2004)
